Test results as given in PubChem BioAssay (NCI).
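A five-concentration, 48-hour dose response in 96-well plates underlies each endpoint, interpolated linearly between surrounding concentrations. GI50 = concentration required for 50% inhibition of growth. TGI: concentration producing complete growth inhibition.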

What was measured:
Assay in all cases: NCI-60 cell line screen, 48 h
A549 NSCLC = system: A549 NSCLC
ACHN renal = system: ACHN renal
CCRF-CEM leukemia = system: CCRF-CEM leukemia
DU-145 prostate = system: DU-145 prostate
EKVX NSCLC = system: EKVX NSCLC
HCC-2998 colon = system: HCC-2998 colon
HCT-116 colon = system: HCT-116 colon
HCT-15 colon = system: HCT-15 colon
HL-60(TB) leukemia = system: HL-60(TB) leukemia
HOP-62 NSCLC = system: HOP-62 NSCLC
HS 578T breast = system: HS 578T breast
K-562 leukemia = system: K-562 leukemia
KM12 colon = system: KM12 colon
LOX IMVI melanoma = system: LOX IMVI melanoma
M14 melanoma = system: M14 melanoma
MOLT-4 leukemia = system: MOLT-4 leukemia
NCI-H226 lung = system: NCI-H226 lung
NCI-H23 lung = system: NCI-H23 lung
NCI-H522 lung = system: NCI-H522 lung
NCI/ADR-RES ovarian = system: NCI/ADR-RES ovarian
OVCAR-3 ovarian = system: OVCAR-3 ovarian
OVCAR-8 ovarian = system: OVCAR-8 ovarian
PC-3 prostate = system: PC-3 prostate
RXF 393 renal = system: RXF 393 renal
SF-268 CNS = system: SF-268 CNS
SF-295 CNS = system: SF-295 CNS
SF-539 CNS = system: SF-539 CNS
SK-MEL-5 melanoma = system: SK-MEL-5 melanoma
SN12C renal = system: SN12C renal
SNB-19 CNS = system: SNB-19 CNS
SNB-75 CNS = system: SNB-75 CNS
T-47D breast = system: T-47D breast
U251 CNS = system: U251 CNS
UACC-257 melanoma = system: UACC-257 melanoma
UACC-62 melanoma = system: UACC-62 melanoma
UO-31 renal = system: UO-31 renal
A498 renal = system: A498 renal
CAKI-1 renal = system: CAKI-1 renal
COLO 205 colon = system: COLO 205 colon
HT29 colon = system: HT29 colon
IGROV1 ovarian = system: IGROV1 ovarian
MALME-3M melanoma = system: MALME-3M melanoma
MDA-MB-435 = system: MDA-MB-435
OVCAR-5 ovarian = system: OVCAR-5 ovarian
SK-MEL-2 melanoma = system: SK-MEL-2 melanoma
SK-MEL-28 melanoma = system: SK-MEL-28 melanoma
SK-OV-3 ovarian = system: SK-OV-3 ovarian
TK-10 renal = system: TK-10 renal
786-0 renal = system: 786-0 renal
HOP-92 NSCLC = system: HOP-92 NSCLC
MCF7 breast = system: MCF7 breast
MDA-MB-231 breast = system: MDA-MB-231 breast
NCI-H460 lung = system: NCI-H460 lung
OVCAR-4 ovarian = system: OVCAR-4 ovarian
RPMI-8226 leukemia = system: RPMI-8226 leukemia
SR leukemia = system: SR leukemia
SW-620 colon = system: SW-620 colon

Structure (SMILES): Cc1cccc(C(O)c2ccncc2)c1O (stereo not given)
- TGI (A549 NSCLC): > 100 µM
- TGI (ACHN renal): > 100 µM
- TGI (CCRF-CEM leukemia): > 100 µM
- TGI (DU-145 prostate): > 100 µM
- TGI (EKVX NSCLC): > 100 µM
- TGI (HCC-2998 colon): > 100 µM
- TGI (HCT-116 colon): > 100 µM
- TGI (HCT-15 colon): > 100 µM
- TGI (HL-60(TB) leukemia): > 100 µM
- TGI (HOP-62 NSCLC): > 100 µM
- TGI (HS 578T breast): > 100 µM
- TGI (K-562 leukemia): > 100 µM
- TGI (KM12 colon): > 100 µM
- TGI (LOX IMVI melanoma): > 100 µM
- TGI (M14 melanoma): > 100 µM
- TGI (MOLT-4 leukemia): > 100 µM
- TGI (NCI-H226 lung): > 100 µM
- TGI (NCI-H23 lung): > 100 µM
- TGI (NCI-H522 lung): > 100 µM
- TGI (NCI/ADR-RES ovarian): > 100 µM
- TGI (OVCAR-3 ovarian): > 100 µM
- TGI (OVCAR-8 ovarian): > 100 µM
- TGI (PC-3 prostate): > 100 µM
- TGI (RXF 393 renal): > 100 µM
- TGI (SF-268 CNS): > 100 µM
- TGI (SF-295 CNS): > 100 µM
- TGI (SF-539 CNS): > 100 µM
- TGI (SK-MEL-5 melanoma): > 100 µM
- TGI (SN12C renal): > 100 µM
- TGI (SNB-19 CNS): > 100 µM
- TGI (SNB-75 CNS): > 100 µM
- TGI (T-47D breast): > 100 µM
- TGI (U251 CNS): > 100 µM
- TGI (UACC-257 melanoma): > 100 µM
- TGI (UACC-62 melanoma): > 100 µM
- TGI (UO-31 renal): > 100 µM

Structure (SMILES): Clc1ccc2c(N3CCC(CCC4CCN(c5ncnc6cc(Cl)ccc56)CC4)CC3)ncnc2c1
- GI50 (UACC-257 melanoma): 61 µM

Structure (SMILES): COc1cc(Cn2c3c(c4c(C(=O)NCCN(C)C)c(O)ccc42)C(=O)c2ccccc2C3=O)cc(OC)c1
- TGI (A498 renal): 3.45 µM
- TGI (CAKI-1 renal): 3.26 µM
- TGI (COLO 205 colon): 3.34 µM
- TGI (DU-145 prostate): 3.2 µM
- TGI (EKVX NSCLC): 3.32 µM
- TGI (HCC-2998 colon): 2.35 µM
- TGI (HS 578T breast): 4.55 µM
- TGI (HT29 colon): 3.45 µM
- TGI (IGROV1 ovarian): 3.22 µM
- TGI (K-562 leukemia): > 100 µM
- TGI (KM12 colon): 3.2 µM
- TGI (MALME-3M melanoma): 3.05 µM
- TGI (MDA-MB-435): 3.4 µM
- TGI (NCI-H226 lung): 48.3 µM
- TGI (NCI-H522 lung): 3.21 µM
- TGI (NCI/ADR-RES ovarian): 5.21 µM
- TGI (OVCAR-5 ovarian): 3.2 µM
- TGI (RXF 393 renal): 5.02 µM
- TGI (SF-295 CNS): 3.45 µM
- TGI (SF-539 CNS): 3.4 µM
- TGI (SK-MEL-2 melanoma): 3.36 µM
- TGI (SK-MEL-28 melanoma): 3.43 µM
- TGI (SK-MEL-5 melanoma): 3.27 µM
- TGI (SK-OV-3 ovarian): 3.88 µM
- TGI (TK-10 renal): 3.14 µM
- TGI (UACC-257 melanoma): 3.97 µM
- TGI (UO-31 renal): 3.23 µM

Structure (SMILES): O=C1C(Cl)=C(Nc2cccc(O)c2)C(=O)N1c1cc(Cl)c(Cl)cc1Cl
- GI50 (786-0 renal): 16.7 µM
- TGI (786-0 renal): 32.7 µM
- TGI (A498 renal): 7.84 µM
- GI50 (A549 NSCLC): 21.7 µM
- TGI (A549 NSCLC): 47.5 µM
- GI50 (ACHN renal): 14.4 µM
- TGI (ACHN renal): 27.5 µM
- GI50 (CAKI-1 renal): 19.2 µM
- TGI (CAKI-1 renal): 48.1 µM
- GI50 (CCRF-CEM leukemia): 0.45 µM
- TGI (CCRF-CEM leukemia): > 100 µM
- GI50 (COLO 205 colon): 18 µM
- TGI (COLO 205 colon): 38 µM
- GI50 (DU-145 prostate): 17.4 µM
- TGI (DU-145 prostate): 39.3 µM
- GI50 (EKVX NSCLC): 23 µM
- TGI (EKVX NSCLC): 73.7 µM
- GI50 (HCC-2998 colon): 19.1 µM
- TGI (HCC-2998 colon): 34.8 µM
- GI50 (HCT-116 colon): 15.8 µM
- TGI (HCT-116 colon): 30.2 µM
- GI50 (HCT-15 colon): 15.1 µM
- TGI (HCT-15 colon): 30.1 µM
- GI50 (HOP-62 NSCLC): 21.3 µM
- TGI (HOP-62 NSCLC): 36.9 µM
- GI50 (HOP-92 NSCLC): 12.5 µM
- TGI (HOP-92 NSCLC): 26.2 µM
- GI50 (HS 578T breast): 17.6 µM
- TGI (HS 578T breast): 39.4 µM
- GI50 (HT29 colon): 18 µM
- TGI (HT29 colon): 40 µM
- GI50 (IGROV1 ovarian): 8.87 µM
- TGI (IGROV1 ovarian): 21.2 µM
- GI50 (K-562 leukemia): 17.4 µM
- TGI (K-562 leukemia): 40.3 µM
- GI50 (KM12 colon): 16.5 µM
- TGI (KM12 colon): 34.3 µM
- GI50 (LOX IMVI melanoma): 13 µM
- TGI (LOX IMVI melanoma): 28 µM
- GI50 (M14 melanoma): 20.8 µM
- TGI (M14 melanoma): 40.9 µM
- GI50 (MALME-3M melanoma): 7.29 µM
- TGI (MALME-3M melanoma): 23.4 µM
- GI50 (MCF7 breast): 20.3 µM
- TGI (MCF7 breast): 54.7 µM
- GI50 (MDA-MB-231 breast): 12.7 µM
- TGI (MDA-MB-231 breast): 29.5 µM
- GI50 (MDA-MB-435): 22.7 µM
- TGI (MDA-MB-435): 55.9 µM
- GI50 (MOLT-4 leukemia): 12.7 µM
- TGI (MOLT-4 leukemia): 37.2 µM
- GI50 (NCI-H226 lung): 14.7 µM
- TGI (NCI-H226 lung): 40.9 µM
- GI50 (NCI-H23 lung): 22.3 µM
- TGI (NCI-H23 lung): 48.3 µM
- GI50 (NCI-H460 lung): 18 µM
- TGI (NCI-H460 lung): 38.4 µM
- GI50 (NCI-H522 lung): 14.3 µM
- TGI (NCI-H522 lung): 28 µM
- GI50 (NCI/ADR-RES ovarian): 24.9 µM
- TGI (NCI/ADR-RES ovarian): 55.7 µM
- GI50 (OVCAR-3 ovarian): 15.9 µM
- TGI (OVCAR-3 ovarian): 36.1 µM
- GI50 (OVCAR-4 ovarian): 22.7 µM
- TGI (OVCAR-4 ovarian): 51.8 µM
- GI50 (OVCAR-5 ovarian): 24.2 µM
- TGI (OVCAR-5 ovarian): 48.2 µM
- GI50 (OVCAR-8 ovarian): 24 µM
- TGI (OVCAR-8 ovarian): 75.5 µM
- GI50 (PC-3 prostate): 15.2 µM
- TGI (PC-3 prostate): 31.6 µM
- GI50 (RPMI-8226 leukemia): 14.4 µM
- TGI (RPMI-8226 leukemia): 45.8 µM
- GI50 (RXF 393 renal): 14.9 µM
- TGI (RXF 393 renal): 30.6 µM
- GI50 (SF-268 CNS): 19.5 µM
- TGI (SF-268 CNS): 42.5 µM
- GI50 (SF-295 CNS): 20.6 µM
- TGI (SF-295 CNS): 53.2 µM
- GI50 (SF-539 CNS): 14.9 µM
- TGI (SF-539 CNS): 34.3 µM
- GI50 (SK-MEL-2 melanoma): 15 µM
- TGI (SK-MEL-2 melanoma): 29.6 µM
- GI50 (SK-MEL-28 melanoma): 18.5 µM
- TGI (SK-MEL-28 melanoma): 36.3 µM
- GI50 (SK-MEL-5 melanoma): 11 µM
- TGI (SK-MEL-5 melanoma): 23.3 µM
- GI50 (SK-OV-3 ovarian): 20.8 µM
- TGI (SK-OV-3 ovarian): 65.3 µM
- GI50 (SN12C renal): 15.6 µM
- TGI (SN12C renal): 29.4 µM
- GI50 (SNB-19 CNS): 20.4 µM
- TGI (SNB-19 CNS): 45.5 µM
- GI50 (SNB-75 CNS): 16.4 µM
- TGI (SNB-75 CNS): 31.3 µM
- GI50 (SR leukemia): 10.3 µM
- TGI (SR leukemia): 59.7 µM
- GI50 (SW-620 colon): 15.2 µM
- TGI (SW-620 colon): 28.9 µM
- GI50 (T-47D breast): 42.1 µM
- TGI (T-47D breast): > 100 µM
- GI50 (TK-10 renal): 23.8 µM
- TGI (TK-10 renal): 48.6 µM
- GI50 (U251 CNS): 13.7 µM
- TGI (U251 CNS): 27.3 µM
- GI50 (UACC-257 melanoma): 30.3 µM
- TGI (UACC-257 melanoma): 77.2 µM
- GI50 (UACC-62 melanoma): 17.2 µM
- TGI (UACC-62 melanoma): 32.5 µM
- GI50 (UO-31 renal): 13.5 µM
- TGI (UO-31 renal): 26.4 µM
